The text below walks through data of patent publication US20160058829A1, “ANTI-FIBROTIC PEPTIDES AND THEIR USE IN METHODS FOR TREATING DISEASES AND DISORDERS CHARACTERIZED BY FIBROSIS” (Thrasos Innovation, Inc., priority 2011, published 2016).

The subject of one assay is MCT cells. As to the kind of experiment: TGF-β-induced EMT in MCT cells (inhibition and reversal). It counts as cell-based. The conditions noted are these: for reversal of EMT: additional 48 h after EMT induction, BMP-7 1 μg/ml; for percentage of cells that regained epithelial characteristics (length to width ratio 3 or less): reversal experiment, MCT cells. Here is the method:
FIG. 52A-FIG. 52E THR-123 inhibits epithelial-mesenchymal transition in MCT cells. Inhibition of EMT by THR-123. […] FIG. 52D, FIG. 52E qPCR analysis for mesenchymal marker CTGF (FIG. 52D) and Snail1 (FIG. 52E). Total RNA was extracted from cells. 1 μg of total RNA was used for generating complementary cDNA and subsequently qPCR was performed. N=3. Data was expressed as mean±s.e.m. in the graph.
FIG. 54A-FIG. 54H THR-123 reverses TGF-β-induced EMT in MCT cells. FIG. 54A-FIG. 54E. Cell were induced EMT by 48 h incubation of TGF-β and EGF (FIG. 54E). After induction of EMT, cells are incubated with either BMP-7 (1 μg/ml) (FIG. 54C), THR-123 (10 μM) (FIG. 54D) or control peptide (FIG. 54E) for an additional 48 h. […] FIG. 54F. Ratio of length to width was calculated in reversal experiment. 5 representative pictures of the cells in different areas of the well, were taken by using the inverted microscope. A total of 100 cells were analyzed (20 cells per picture). […] The data are presented mean±s.e.m. in the graph. FIG. 54G: 3 or less in length to width ratio in MCT cell was estimated as epithelial characteristics and the percentage of epithelial characteristics in each experimental setting are estimated. 52% of BMP7 and 41% of THR-123 treated MCT cells regained epithelial characteristics. Experiments were repeated three times.
EMT was induced in NP1 cells or MCT cells by incubation with 3 ng/ml recombinant human […] for 48 h. When EMT occurred, the medium was removed and replaced with THR-123 (10 μM) or recombinant human BMP7 (100 ng/ml) in DMEM. After 48 h, the cells were characterized by immunocytochemistry using primary monoclonal antibodies to E-cadherin ([…]) and rhodamine-conjugated secondary antibodies (Jackson Immunoresearch, West Grove, Pa.) as previously described. The staining was visualized by fluorescence microscopy and documented representative pictures using Spot advanced software (Carl Zeiss, Oberkochen, Germany). Also protein and total RNA were harvested at the end of experiment. For the morphometric analysis for EMT, length/width of cells in bright field pictures are measured by image J software. The ratio of length/width was calculated.

The test system of assay [1] is mice with ischemia reperfusion injury. As to the kind of experiment: Ischemia reperfusion injury (IRI) in mice. The assay is classed as in vivo. Here is the method: FIG. 55A-FIG. 55D The effect of THR-123 on acute tubular damage induced by ischemia reperfusion injury. Ischemia reperfusion injury (IRI) was induced by the clamping of the left renal pedicle for 25 minutes. After ischemia reperfusion injury the mice were given THR-123 orally (5 mg/kg/day) or PBS till the day of sacrifice. […] Arrows indicate necrotic tubules. FIG. 55B. […] FIG. 55C. […] Ten fields in each group were analyzed. FIG. 55D. Blood urea nitrogen estimated by quantichrome colorimetric urea assay at day 7 IRI. No difference in the all groups. PBS group (n=5) and THR-123-treated group (n=4) are analyzed. Data are shown as mean±s.e.m. in the graph.
7B16 mice are used in this study. Mice are anesthetized with the mixture of ketamine and xylazine and the left renal pedicle clamped for 25 minutes. At same day after surgery, THR-123 (p.o. 5 mg/Kg/day) or vehicle treatments are started. At 7 days after surgery, mice are sacrificed.

In the next assay the test system is HK-2 cells. As to the kind of experiment: TNF-α-induced inflammatory cytokine production in HK-2 cells (ELISA). The conditions noted are these: HK-2 cells. The assay is classed as cell-based, human. Here is the method:
FIG. 37 provides a bar graph showing a comparison of the effects of THR-123 (or “THR-1405”) and the specific inhibitor SB 203580 on the level of TNF-α-induced IL-6 production, an inflammatory marker, in human renal tubule epithelial cells (HK-2).
FIG. 47A-FIG. 47C Anti-inflammatory activity of THR-123. PTEC-derived HK-2 (HK-2) cells were culture on 24-well plate (30,000 cells/well). Cells are exposed to K-SFM medium alone or TNF-α (5 ng/ml). Twenty hours after TNF-α incubation, cells are washed twice by pre-warmed culture media and subsequently cells are incubated with various concentration of THR-123 or BMP7 for 60 hours. At the end of incubation, culture medias are harvested and ELISA analysis are performed. FIG. 47A: IL-6, FIG. 47B: IL-8 and FIG. 47C: ICAM-1 results are shown. Analyze are performed in triplicates and data are shown as mean±s.e.m. in the graph.
Preliminary screening for optimization was based on anti-inflammatory efficacy in an in vitro cell-based assay using a human renal tubular epithelial cell line (HK-2). The assay tested the ability of compounds to reverse the increase in production of cytokine IL-6 that resulted from stimulation of the cells with tumor necrosis factor (TNF)-α. Sequence-activity analysis was carried out using the SVA program. After six optimization cycles, THR-123 (FIG. 2A) emerged as the lead compound, which was further evaluated in other relevant anti-fibrosis assays (vide infra).
Human proximal tubular epithelial cells-derived HK-2 cells were culture on 24-well plate (30,000 cells/well). Cells are exposed to K-SFM medium alone or […] (5 ng/ml). Twenty hours after TNF-α incubation, cells are washed twice by pre-warmed culture media and subsequently cells are incubated with various concentration of THR-123 or BMP7 for 60 hours. At the end of incubation, culture medias are harvested and ELISA analysis for IL-6, IL-8 and ICAM-1 are performed.
On the technique in general: In an ELISA, binding on a coated surface is turned into a signal by an enzyme label.

Entries after “also recorded” stand apart in the source; their conditions may differ. Positions of bridges follow the written chain, without caps; N, C: chain ends.

Regarding “(H)-CYFDDSSNVLCKKYRS-(OH) (H-CYFDDSSNVLCKKYRS-OH; disulfide 1-11; SMILES CC(C)C[C@@H]1NC(=O)[C@H](C(C)C)NC(=O)[C@H](CC(N)=O)NC(=O)[C@H](CO)NC(=O)[C@H](CO)NC(=O)[C@H](CC(=O)O)NC(=O)[C@H](CC(=O)O)NC(=O)[C@H](Cc2ccccc2)NC(=O)[C@H](Cc2ccc(O)cc2)NC(=O)[C@@H](N)CSSC[C@@H](C(=O)N[C@@H](CCCCN)C(=O)N[C@@H](CCCCN)C(=O)N[C@@H](Cc2ccc(O)cc2)C(=O)N[C@@H](CCCNC(=N)N)C(=O)N[C@@H](CO)C(=O)O)NC1=O) [SEQ ID NO: 1]”, the “TGF-β induced expression of snail and CTGF (qPCR)” value in the assay on MCT cells (FIG. 52 D, E) was “inhibited”. The “TGF-β-induced EMT, cell shape (co-incubation)” value in the assay on MCT cells (TGF-β 2.5 ng/ml 48 h, THR-123 10 μM) is reported as “prevents these phenotypic changes”. In addition, the “reversal of EMT” value in the assay with MCT cells (THR-123 10 μM) is “Reversal of EMT was observed”. Further, the “percentage of cells that regained epithelial characteristics (length to width ratio 3 or less)” value in the assay on MCT cells turned out to be 41%. Moreover, the “blood urea nitrogen at day 7 IRI” value in assay [1] (THR-123 orally 5 mg/kg/day versus PBS) is “No difference”. Moreover, the “renal tubular necrosis / tubular damage” value in assay [1] (THR-123 orally 5 mg/kg/day, versus PBS, day 7) is listed as “significantly less tubular damage”. In the assay with HK-2 cells, the “TNF-α-induced ICAM-1 production” value was “inhibits” and the “TNF-α-induced IL-8 production” value is reported as “inhibits”. For the same molecule, the “TNF-α-induced IL-6 production” value with HK-2 cells (listed as THR-123) was “inhibited TNF-α induced IL-6 production in dose dependent manner; also recorded: significantly reduced”.

B1: BMP-7: bone morphogenetic protein-7; recombinant human BMP7, positive control (protein)
chain: STGSKQRSQNRSKTPKNQEALRMANVAENSSSDQRQACKKHELYVSFRDLGWQDWIIAPEGYAAYYCEGECAFPLNSYMNATNHAIVQTLVHFINPETVPKPCCAPTQLNAISVLYFDDSSNVILKKYRNMVVRACGCH
Consider B1, for which the “reversal of EMT” value with MCT cells (THR-123 10 μM) was “Reversal of EMT was observed”. For the same molecule, the “percentage of cells that regained epithelial characteristics (length to width ratio 3 or less)” value in the assay with MCT cells is 52%. In addition, in the assay with HK-2 cells, the “TNF-α-induced IL-6 production” value is given as “inhibited TNF-α induced IL-6 production in dose dependent manner”.
